Test results published in US11331289B2, “Antimicrobial composition” (priority 2017, dated 2022).

Experiments:
S. aureus n°16 315 = assay: Time-killing curve, broth macrodilution; format: cell-based, Staphylococcus aureus
Procedure: (§1) The time-killing curve is used to determine the bactericidal or bacteriostatic activity of the antibimicrobial substances. Time-killing curves of Oxyclozanide against canine isolates of Staphylococcus aureus and Staphylococcus pseudintermedius were obtained using broth macrodilution method. After contact of different fixed amounts of Oxyclozanide with an inoculum, viable bacteria are counted immediately after contact and after 1, 3, 6 and 24 hours. Counting is performed on agar medium without antimicrobial substance.
(§2) Results are analyzed by plotting log10 CFU/ml versus time for each tested concentration. Bactericidal activity as defined by 99.9% killing of the inoculum is determined from time-killing curves by noting the presence of a ≥3 log10 decrease in CFU/ml.
(§3) Bacterial strains were sub-cultured twice from one cryobead on Mueller Hinton agar and incubated at 37° C. for 18-24 hours. From the second subcultures, isolated colonies were transferred into tubes containing 2 ml of Mueller Hinton Broth in order to obtain bacterial suspensions at 10^8 CFU/ml, knowing that an optical density of 0.1 at 620 nm corresponds to bacterial suspension at 10^8 CFU/ml. Then, bacterial suspensions were adjusted between 5 10^7 and 1 10^8 CFU/ml by dilution in Mueller Hinton broth.
(§4) For each concentration of Oxyclozanide to be tested, 50 μl of working solution concentrated 100× and […] of inoculum were added to 5 ml of Mueller-Hinton broth. Thus, the range of tested concentrations was from 0.125 to 8 μg/ml and the concentration of micro-organism was between 1 10^6 and 2 10^6 CFU/ml.
(§5) At the same time, a tube without Oxyclozanide was prepared: 50 μl of DMSO and 100 μl of inoculum were added to 5 ml of Mueller-Hinton broth and used as growth control. Tubes were incubated at 36° C. under agitation.
(§6) The numbers of viable bacteria were determined immediately after contact (TO) and after 1, 3, 6 and 24 h of incubation.
(§7) At each time, samples of each tube were taken and dilutions were performed in Mueller-Hinton broth. Then, dilutions were spread on Mueller Hinton agar with spiral plater. After 18 h of incubation at 36° C., counting of colonies was performed with automatic colony counter which determine the concentrations of viable bacteria. The technique employed made it possible to quantify bacterial concentrations as low as 20 CFU/ml.
(§8) Time-killing curves were plotted for each concentration of Oxyclozanide using Microsoft Excel software. The number or surviving bacteria was expressed as log10 CFU/ml. The time-killing curves of each strain represent the decrease in the viable bacteria count as a function of time for the Oxyclozanide concentrations concerned.
(§9) Bactericidal activity as defined by 99.9% killing of the inoculum is determined from time-killing curves by noting the presence of a ≥3 log10 decrease in CFU/ml.

S. aureus n°16 302 = assay: Time-killing curve, broth macrodilution; format: cell-based, Staphylococcus aureus
Procedure: as §1, §2, §3, §4, §5, §6, §7, §8, §9

Staphylococcus aureus = assay: Time-killing curves, conclusion over strains; format: cell-based
Procedure: as §1, §2, §9

[1] = test system: Staphylococcus pseudintermedius; assay: Time-killing curves, conclusion over strains; format: cell-based
Procedure: as §1, §2, §9

Compound: O=C(Nc1cc(Cl)cc(Cl)c1O)c1c(O)c(Cl)cc(Cl)c1Cl [Oxyclozanide]
- Bacteria reducing rate (S. aureus n°16 315; 0.25 μg/ml (½ MIC), 1 h): 0.3 Δ log10 CFU/ml
- Viable bacteria count (S. aureus n°16 315; 0.25 μg/ml (½ MIC), 1 h): 6.7 Log10 CFU/ml
- Bacteria reducing rate (S. aureus n°16 315; 0.25 μg/ml (½ MIC), 3 h): 0.3 Δ log10 CFU/ml
- Viable bacteria count (S. aureus n°16 315; 0.25 μg/ml (½ MIC), 3 h): 6.7 Log10 CFU/ml
- Bacteria reducing rate (S. aureus n°16 315; 0.25 μg/ml (½ MIC), 6 h): 0.7 Δ log10 CFU/ml
- Bacteria reducing rate (S. aureus n°16 315; 0.25 μg/ml (½ MIC), 24 h): 1.8 Δ log10 CFU/ml
- Bacteria reducing rate (S. aureus n°16 315; 0.5 μg/ml (MIC), 1 h): −0.1 Δ log10 CFU/ml
- Bacteria reducing rate (S. aureus n°16 315; 0.5 μg/ml (MIC), 3 h): 0.1 Δ log10 CFU/ml
- Viable bacteria count (S. aureus n°16 315; 0.5 μg/ml (MIC), 3 h): 6.6 Log10 CFU/ml
- Bacteria reducing rate (S. aureus n°16 315; 0.5 μg/ml (MIC), 6 h): −0.2 Δ log10 CFU/ml
- Bacteria reducing rate (S. aureus n°16 315; 0.5 μg/ml (MIC), 24 h): 0.5 Δ log10 CFU/ml
- Viable bacteria count (S. aureus n°16 315; 0.5 μg/ml (MIC), 24 h): 7.0 Log10 CFU/ml
- Bacteria reducing rate (S. aureus n°16 315; 1 μg/ml (2 MIC), 1 h): 0.0 Δ log10 CFU/ml
- Bacteria reducing rate (S. aureus n°16 315; 1 μg/ml (2 MIC), 3 h): 0.1 Δ log10 CFU/ml
- Viable bacteria count (S. aureus n°16 315; 1 μg/ml (2 MIC), 3 h): 6.6 Log10 CFU/ml
- Bacteria reducing rate (S. aureus n°16 315; 1 μg/ml (2 MIC), 6 h): −0.3 Δ log10 CFU/ml
- Bacteria reducing rate (S. aureus n°16 315; 1 μg/ml (2 MIC), 24 h): −1.2 Δ log10 CFU/ml
- Bacteria reducing rate (S. aureus n°16 315; 2 μg/ml (4 MIC), 1 h): 0.1 Δ log10 CFU/ml
- Viable bacteria count (S. aureus n°16 315; 2 μg/ml (4 MIC), 1 h): 6.5 Log10 CFU/ml
- Bacteria reducing rate (S. aureus n°16 315; 2 μg/ml (4 MIC), 3 h): 0.2 Δ log10 CFU/ml
- Viable bacteria count (S. aureus n°16 315; 2 μg/ml (4 MIC), 3 h): 6.6 Log10 CFU/ml
- Bacteria reducing rate (S. aureus n°16 315; 2 μg/ml (4 MIC), 6 h): −1.1 Δ log10 CFU/ml
- Bacteria reducing rate (S. aureus n°16 315; 2 μg/ml (4 MIC), 24 h): −2.3 Δ log10 CFU/ml
- Bacteria reducing rate (S. aureus n°16 315; 4 μg/ml (8 MIC), 1 h): 0.0 Δ log10 CFU/ml
- Bacteria reducing rate (S. aureus n°16 315; 4 μg/ml (8 MIC), 3 h): −0.7 Δ log10 CFU/ml
- Viable bacteria count (S. aureus n°16 315; 4 μg/ml (8 MIC), 3 h): 5.7 Log10 CFU/ml
- Bacteria reducing rate (S. aureus n°16 315; 4 μg/ml (8 MIC), 6 h): −1.8 Δ log10 CFU/ml
- Viable bacteria count (S. aureus n°16 315; 4 μg/ml (8 MIC), 6 h): 4.6 Log10 CFU/ml
- Bacteria reducing rate (S. aureus n°16 315; 4 μg/ml (8 MIC), 24 h): −5.1 Δ log10 CFU/ml
- Bacteria reducing rate (S. aureus n°16 315; 8 μg/ml (16 MIC), 1 h): 0.1 Δ log10 CFU/ml
- Bacteria reducing rate (S. aureus n°16 315; 8 μg/ml (16 MIC), 3 h): −1.5 Δ log10 CFU/ml
- Viable bacteria count (S. aureus n°16 315; 8 μg/ml (16 MIC), 3 h): 4.8 Log10 CFU/ml
- Bacteria reducing rate (S. aureus n°16 315; 8 μg/ml (16 MIC), 6 h): −2.3 Δ log10 CFU/ml
- Bacteria reducing rate (S. aureus n°16 315; 8 μg/ml (16 MIC), 24 h): −5.0 Δ log10 CFU/ml
- Bacteria reducing rate (S. aureus n°16 302; 0.25 μg/ml (½ MIC), 1 h): 0.0 Δ log10 CFU/ml
- Bacteria reducing rate (S. aureus n°16 302; 0.25 μg/ml (½ MIC), 3 h): 0.1 Δ log10 CFU/ml
- Bacteria reducing rate (S. aureus n°16 302; 0.25 μg/ml (½ MIC), 6 h): 0.6 Δ log10 CFU/ml
- Bacteria reducing rate (S. aureus n°16 302; 0.25 μg/ml (½ MIC), 24 h): 1.7 Δ log10 CFU/ml
- Bacteria reducing rate (S. aureus n°16 302; 0.5 μg/ml (MIC), 1 h): 0.0 Δ log10 CFU/ml
- Bacteria reducing rate (S. aureus n°16 302; 0.5 μg/ml (MIC), 3 h): 0.0 Δ log10 CFU/ml
- Bacteria reducing rate (S. aureus n°16 302; 0.5 μg/ml (MIC), 6 h): −0.3 Δ log10 CFU/ml
- Bacteria reducing rate (S. aureus n°16 302; 0.5 μg/ml (MIC), 24 h): 1.6 Δ log10 CFU/ml
- Bacteria reducing rate (S. aureus n°16 302; 1 μg/ml (2 MIC), 1 h): 0.0 Δ log10 CFU/ml
- Bacteria reducing rate (S. aureus n°16 302; 1 μg/ml (2 MIC), 3 h): 0.0 Δ log10 CFU/ml
- Bacteria reducing rate (S. aureus n°16 302; 1 μg/ml (2 MIC), 6 h): −0.2 Δ log10 CFU/ml
- Bacteria reducing rate (S. aureus n°16 302; 1 μg/ml (2 MIC), 24 h): 1.5 Δ log10 CFU/ml
- Viable bacteria count (S. aureus n°16 302; 1 μg/ml (2 MIC), 24 h): 7.9 Log10 CFU/ml
- Bacteria reducing rate (S. aureus n°16 302; 2 μg/ml (4 MIC), 1 h): 0.0 Δ log10 CFU/ml
- Bacteria reducing rate (S. aureus n°16 302; 2 μg/ml (4 MIC), 3 h): −0.1 Δ log10 CFU/ml
- Bacteria reducing rate (S. aureus n°16 302; 2 μg/ml (4 MIC), 6 h): −0.5 Δ log10 CFU/ml
- Viable bacteria count (S. aureus n°16 302; 2 μg/ml (4 MIC), 6 h): 6.0 Log10 CFU/ml
- Bacteria reducing rate (S. aureus n°16 302; 2 μg/ml (4 MIC), 24 h): −2.5 Δ log10 CFU/ml
- Viable bacteria count (S. aureus n°16 302; 4 μg/ml (8 MIC), 0 h): 6.5 Log10 CFU/ml
- Bacteria reducing rate (S. aureus n°16 302; 4 μg/ml (8 MIC), 1 h): −0.2 Δ log10 CFU/ml
- Bacteria reducing rate (S. aureus n°16 302; 4 μg/ml (8 MIC), 3 h): −0.7 Δ log10 CFU/ml
- Viable bacteria count (S. aureus n°16 302; 4 μg/ml (8 MIC), 3 h): 5.8 Log10 CFU/ml
- Bacteria reducing rate (S. aureus n°16 302; 4 μg/ml (8 MIC), 6 h): −2.3 Δ log10 CFU/ml
- Bacteria reducing rate (S. aureus n°16 302; 4 μg/ml (8 MIC), 24 h): −4.1 Δ log10 CFU/ml
- Viable bacteria count (S. aureus n°16 302; 4 μg/ml (8 MIC), 24 h): 2.4 Log10 CFU/ml
- Bacteria reducing rate (S. aureus n°16 302; 8 μg/ml (16 MIC), 1 h): −0.8 Δ log10 CFU/ml
- Viable bacteria count (S. aureus n°16 302; 8 μg/ml (16 MIC), 1 h): 5.7 Log10 CFU/ml
- Bacteria reducing rate (S. aureus n°16 302; 8 μg/ml (16 MIC), 3 h): −2.3 Δ log10 CFU/ml
- Bacteria reducing rate (S. aureus n°16 302; 8 μg/ml (16 MIC), 6 h): −3.8 Δ log10 CFU/ml
- Viable bacteria count (S. aureus n°16 302; 8 μg/ml (16 MIC), 6 h): 2.7 Log10 CFU/ml
- Bacteria reducing rate (S. aureus n°16 302; 8 μg/ml (16 MIC), 24 h): −5.2 Δ log10 CFU/ml
- Pharmacodynamic profile (Staphylococcus aureus): concentration-dependant
- Contact time at which bactericidal effect (≥3 log10 decrease in CFU/ml) is observed (Staphylococcus aureus; concentration of 4 μg/ml): 24 hours
- Contact time at which bactericidal effect (≥3 log10 decrease in CFU/ml) is observed (Staphylococcus aureus; concentration of 8 μg/ml): 6 to 24 hours
- Pharmacodynamic profile [1]: concentration-dependant
- Contact time at which bactericidal effect (≥3 log10 decrease in CFU/ml) is observed ([1]; concentration of 4 μg/ml): 24 hours
- Contact time at which bactericidal effect (≥3 log10 decrease in CFU/ml) is observed ([1]; concentration of 8 μg/ml): 6 to 24 hours
